In patent US20250160275A1, “COMPOUNDS FOR MODIFYING MEIOTIC RECOMBINATION AND METHODS RELATING THERETO” (The University of North Carolina at Chapel Hill, priority 2022, published 2025):

What was measured:
Format in all cases: in vivo
[1] = system: flowering Arabidopsis thaliana plants; experiment: visual fluorescent pollen transgene assay, crossover frequency in interval I2a (chromosome 2)
[2] = system: flowering Arabidopsis thaliana plants; experiment: visual fluorescent pollen transgene assay, crossover frequency in interval I5d (chromosome 5)
Protocol: An aqueous solution of 3-aminobutanoic acid was applied to flowering Arabidopsis thaliana plants to enhance the frequency of meiotic recombination (crossovers). Silwet, a spraying adjuvant, was added to the 3-aminobutanoic acid solution at a volume/volume concentration of 0.01%. The solution was applied to the plants by foliar spraying until the plants were drenched. Several concentrations of 3-aminobutanoic acid were used including 0.1, 1, 7.5, 10, 12.5 and 15 mM. As a control, other plants (i.e., control plants) were treated with an aqueous 0.01% solution of Silwet by foliar spraying the solution on the plants until the plants were drenched.
(§1) Crossover frequencies were measured in pollen from treated and control plants using a visual fluorescent pollen transgene assay as described in Francis et al., Proc Natl Acad Sci USA. 2007; 104 (10): 3913-3918. In this assay pollen tetrads are scored as Parental Ditype (PD), Nonparental Ditype (NPD) or Tetratype (TT) and the frequency of those tetrad classes are used to calculate a genetic map distances in centiMorgans (cM) between reporter genes expressing fluorescent proteins. The genetic map distances between a pair of markers on chromosome 5 were compared between control plants and treated plants. The genetic interval between the two markers was designated as I5d. […] In Table 2, each experimental treatment is paired with data from control plants that were treated and scored together and designated with an experiment number in the first column.
An aqueous solution phenethyl isothiocyanate (IUPAC name: 2-isothiocyanatoethylbenzene) was applied to flowering Arabidopsis thaliana plants to enhance the frequency of meiotic recombination (crossovers). Phenethyl isothiocyanate in an aqueous solution containing 10% DMSO and 0.01% Silwet was applied by foliar spray until the plants were drenched. The phenethyl isothiocyanate was first dissolved in 100% DMSO and then diluted to its final concentration with 0.0.1% Silwet in water. Several concentrations of phenethyl isothiocyanate were used including 7.5, 10, and 12.5 mM. Control plants were treated with an aqueous solution of 10% DMSO and 0.01% Silwet by foliar spraying the solution on the control plants until the control plants were drenched.
as §1, with “4,” for “2,”
An aqueous solution BIX-01294 (IUPAC name: N-(1-benzylpiperidin-4-yl)-6,7-dimethoxy-2-(4-methyl-1,4-diazepan-1-yl) quinazolin-4-amine) was applied to flowering Arabidopsis thaliana plants to enhance the frequency of meiotic recombination (crossovers). BIX-01294 in an aqueous solution containing 10% DMSO and 0.01% Silwet was applied by foliar spray until the plants were drenched. The BIX-01294 was first dissolved in 100% DMSO and then diluted to its final concentration with 0.0.1% Silwet in water. Several concentrations of […] were used including 0.5, 1, 2.5 and 5 mM. Control plants were treated with an aqueous solution of 10% DMSO and 0.01% Silwet by foliar spraying the solution on the control plants until the control plants were drenched. […]

[3] = system: flowering Arabidopsis thaliana plants; experiment: visual fluorescent pollen transgene assay, crossover frequency in interval I2b (chromosome 2); conditions: for NPD (Nonparental Ditype pollen tetrads) / PD (Parental Ditype pollen tetrads) / TT (Tetratype pollen tetrads) / genetic map distance: 0.01% Silwet in water, Exp.(1); for genetic map distance: Water control 5.11 cM
[4] = 0.1 mM foliar spray, 10% DMSO and 0.01% Silwet, Exp.(1)
[5] = 0.5 mM foliar spray, 10% DMSO and 0.01% Silwet, Exp.(1)
[6] = 1 mM foliar spray, 10% DMSO and 0.01% Silwet, Exp.(1)
[7] = 2.5 mM foliar spray, 10% DMSO and 0.01% Silwet, Exp.(2)
[8] = 5 mM foliar spray, 10% DMSO and 0.01% Silwet, Exp.(2)
[9] = 1 mM foliar spray, 10% DMSO and 0.01% Silwet, Exp.(2)
[10] = 2.5 mM foliar spray, 10% DMSO and 0.01% Silwet, Exp.(3)
[11] = 5 mM foliar spray, 10% DMSO and 0.01% Silwet, Exp.(3)
[12] = 2.5 mM foliar spray, Example 4, Exp.(1)
[13] = 7.5 mM foliar spray, Example 4, Exp.(1)
[14] = 10 mM foliar spray, Example 4, Exp.(1)
[15] = 0.1 mM foliar spray, 0.01% Silwet in water, Exp.(1)
[16] = 1 mM foliar spray, 0.01% Silwet in water, Exp.(2)
[17] = 10 mM foliar spray, 0.01% Silwet in water, Exp.(1)
[18] = 12.5 mM foliar spray, 0.01% Silwet in water, Exp.(3)
[19] = 15 mM foliar spray, 0.01% Silwet in water, Exp.(3)

COc1cc2nc(N3CCCN(C)CC3)nc(NC3CCN(Cc4ccccc4)CC3)c2cc1OC [BIX-01294, N-(1-benzylpiperidin-4-yl)-6,7-dimethoxy-2-(4-methyl-1,4-diazepan-1-yl) quinazolin-4-amine]
NPD (Nonparental Ditype pollen tetrads) [1, 4]: 0
PD (Parental Ditype pollen tetrads) [1, 4]: 908
TT (Tetratype pollen tetrads) [1, 4]: 59
genetic map distance ([1]; 0.1 mM foliar spray, 10% DMSO and 0.01% Silwet, Exp.(1), DMSO control 2.19 cM, p-value 0.046): 3.05 cM
NPD (Nonparental Ditype pollen tetrads) [1, 5]: 0
PD (Parental Ditype pollen tetrads) [1, 5]: 922
TT (Tetratype pollen tetrads) [1, 5]: 84
genetic map distance ([1]; 0.5 mM foliar spray, 10% DMSO and 0.01% Silwet, Exp.(1), DMSO control 2.19 cM, p-value 0.000): 4.17 cM
NPD (Nonparental Ditype pollen tetrads) [1, 6]: 0
PD (Parental Ditype pollen tetrads) [1, 6]: 988
TT (Tetratype pollen tetrads) [1, 6]: 99
genetic map distance ([1]; 1 mM foliar spray, 10% DMSO and 0.01% Silwet, Exp.(1), DMSO control 2.19 cM, p-value 0.000): 4.55 cM
NPD (Nonparental Ditype pollen tetrads) [1, 7]: 0
PD (Parental Ditype pollen tetrads) [1, 7]: 777
TT (Tetratype pollen tetrads) [1, 7]: 55
genetic map distance ([1]; 2.5 mM foliar spray, 10% DMSO and 0.01% Silwet, Exp.(2), DMSO control 2.75 cM, p-value 0.163): 3.31 cM
NPD (Nonparental Ditype pollen tetrads) [1, 8]: 0
PD (Parental Ditype pollen tetrads) [1, 8]: 836
TT (Tetratype pollen tetrads) [1, 8]: 43
genetic map distance ([1]; 5 mM foliar spray, 10% DMSO and 0.01% Silwet, Exp.(2), DMSO control 2.75 cM, p-value 0.725): 2.45 cM
meiotic recombination in treated plants compared to control plants ([1]; 0.1, 0.5 and 1 mM, three of five concentrations (not 2.5, 5 mM)): increased meiotic recombination
NPD (Nonparental Ditype pollen tetrads) [2, 5]: 1
PD (Parental Ditype pollen tetrads) [2, 5]: 936
TT (Tetratype pollen tetrads) [2, 5]: 185
genetic map distance ([2]; 0.5 mM foliar spray, 10% DMSO and 0.01% Silwet, Exp.(1), DMSO control 6.04 cM, p-value 0.001): 8.51 cM
NPD (Nonparental Ditype pollen tetrads) [2, 9]: 0
PD (Parental Ditype pollen tetrads) [2, 9]: 829
TT (Tetratype pollen tetrads) [2, 9]: 131
genetic map distance ([2]; 1 mM foliar spray, 10% DMSO and 0.01% Silwet, Exp.(2), DMSO control 6.73 cM, p-value 0.454): 6.82 cM
NPD (Nonparental Ditype pollen tetrads) [2, 10]: 5
PD (Parental Ditype pollen tetrads) [2, 10]: 888
TT (Tetratype pollen tetrads) [2, 10]: 169
genetic map distance ([2]; 2.5 mM foliar spray, 10% DMSO and 0.01% Silwet, Exp.(3), DMSO control 5.31 cM, p-value 0.000): 9.37 cM
NPD (Nonparental Ditype pollen tetrads) [2, 11]: 4
PD (Parental Ditype pollen tetrads) [2, 11]: 938
TT (Tetratype pollen tetrads) [2, 11]: 156
genetic map distance ([2]; 5 mM foliar spray, 10% DMSO and 0.01% Silwet, Exp.(3), DMSO control 5.31 cM, p-value 0.001): 8.20 cM
meiotic recombination in treated plants compared to controls ([2]; 0.5, 2.5 and 5 mM, three of four concentrations (not 1 mM)): increase meiotic recombination

CC(N)CC(=O)O (stereo not shown) [3-aminobutanoic acid]
NPD (Nonparental Ditype pollen tetrads) [1, 12]: 0
PD (Parental Ditype pollen tetrads) [1, 12]: 924
TT (Tetratype pollen tetrads) [1, 12]: 67
genetic map distance ([1]; 2.5 mM foliar spray, Example 4, Exp.(1), DMSO control 2.32 cM, p-value 0.021): 3.38 cM
NPD (Nonparental Ditype pollen tetrads) [1, 13]: 0
PD (Parental Ditype pollen tetrads) [1, 13]: 914
TT (Tetratype pollen tetrads) [1, 13]: 66
genetic map distance ([1]; 7.5 mM foliar spray, Example 4, Exp.(1), DMSO control 2.32 cM, p-value 0.023): 3.37 cM
NPD (Nonparental Ditype pollen tetrads) [1, 14]: 0
PD (Parental Ditype pollen tetrads) [1, 14]: 941
TT (Tetratype pollen tetrads) [1, 14]: 60
genetic map distance ([1]; 10 mM foliar spray, Example 4, Exp.(1), DMSO control 2.32 cM, p-value 0.090): 3.00 cM
meiotic recombination in treated plants compared to control plants ([1]; Example 4, 2.5 and 7.5 mM, two of three concentrations (not 10 mM)): increased meiotic recombination
NPD (Nonparental Ditype pollen tetrads) ([3]; 7.5 mM foliar spray): 3
PD (Parental Ditype pollen tetrads) ([3]; 7.5 mM foliar spray): 867
TT (Tetratype pollen tetrads) ([3]; 7.5 mM foliar spray): 128
genetic map distance ([3]; 7.5 mM foliar spray, p-value 0.006): 7.31 cM
NPD (Nonparental Ditype pollen tetrads) ([3]; 10 mM foliar spray): 1
PD (Parental Ditype pollen tetrads) ([3]; 10 mM foliar spray): 866
TT (Tetratype pollen tetrads) ([3]; 10 mM foliar spray): 140
genetic map distance ([3]; 10 mM foliar spray, p-value 0.003): 7.25 cM
NPD (Nonparental Ditype pollen tetrads) ([3]; 12.5 mM foliar spray): 0
PD (Parental Ditype pollen tetrads) ([3]; 12.5 mM foliar spray): 865
TT (Tetratype pollen tetrads) ([3]; 12.5 mM foliar spray): 155
genetic map distance ([3]; 12.5 mM foliar spray, p-value 0.000): 7.60 cM
meiotic recombination in treated plants compared to control plants ([3]; all three concentrations (7.5, 10, 12.5 mM)): increased meiotic recombination
NPD (Nonparental Ditype pollen tetrads) [2, 15]: 0
PD (Parental Ditype pollen tetrads) [2, 15]: 926
TT (Tetratype pollen tetrads) [2, 15]: 178
genetic map distance ([2]; 0.1 mM foliar spray, 0.01% Silwet in water, Exp.(1), Water control 5.89 cM, p-value 0.002): 8.06 cM
NPD (Nonparental Ditype pollen tetrads) [2, 16]: 0
PD (Parental Ditype pollen tetrads) [2, 16]: 983
TT (Tetratype pollen tetrads) [2, 16]: 169
genetic map distance ([2]; 1 mM foliar spray, 0.01% Silwet in water, Exp.(2), Water control 5.37 cM, p-value 0.003): 7.34 cM
NPD (Nonparental Ditype pollen tetrads) [2, 17]: 0
PD (Parental Ditype pollen tetrads) [2, 17]: 1092
TT (Tetratype pollen tetrads) [2, 17]: 221
genetic map distance ([2]; 10 mM foliar spray, 0.01% Silwet in water, Exp.(1), Water control 5.89 cM, p-value 0.000): 8.42 cM
NPD (Nonparental Ditype pollen tetrads) [2, 18]: 4
PD (Parental Ditype pollen tetrads) [2, 18]: 908
TT (Tetratype pollen tetrads) [2, 18]: 166
genetic map distance ([2]; 12.5 mM foliar spray, 0.01% Silwet in water, Exp.(3), Water control 5.50 cM, p-value 0.000): 8.81 cM
NPD (Nonparental Ditype pollen tetrads) [2, 19]: 2
PD (Parental Ditype pollen tetrads) [2, 19]: 849
TT (Tetratype pollen tetrads) [2, 19]: 160
genetic map distance ([2]; 15 mM foliar spray, 0.01% Silwet in water, Exp.(3), Water control 5.50 cM, p-value 0.000): 8.51 cM
meiotic recombination in treated plants compared to controls ([2]; all concentrations (Table 2: 0.1, 1, 10, 12.5, 15 mM)): increase meiotic recombination
